For 74 compounds, activity change, negative = cytotoxicity and AC50 results are on record in PubChem BioAssay AID1259333 (Broad Institute, 2017).

Molecules are shown by their SMILES. Active and inactive are the calls of the source. The rule behind the calls is not given here; tested in parental BL2 cells. Bounds are passed on as bounds.

The nature of test [1]: cell cytotoxicity, dose response, cytotoxicity control, CellTiter-Glo (AID 1259333).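 For activity change, negative = cytotoxicity: 0% = vehicle neutral controls and -100% = reference inhibitor positive controls.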 As to conditions: cytotoxicity, CellTiter-Glo ATP luminescence. For orientation: In ATP-based viability assays light output follows the ATP content of the culture.
Test [2] deals with cytotoxicity, CellTiter-Glo ATP luminescence. The test is described as above.

In the case of `Nc1nc(=O)c2ccccc2s1`, the activity change, negative = cytotoxicity in test [1] (at 10 µM (top of the series)) was 19.7% (inactive). Still for that read-out and setting: with `C=C1C(=O)OC2C=C(CO)CCC=C(CO)CC(OC(=O)C(C)C)C12` (centres undefined) the figure was 38.2% (inactive); with `COc1ccc(S(=O)(=O)N(C)C[C@@H]2Oc3ccc(NC(=O)Nc4ccc(C(F)(F)F)cc4)cc3C(=O)N([C@H](C)CO)C[C@H]2C)cc1`, 22.7% (inactive); with `CC1=CC(=O)c2ccccc2C1=O`, 36.2% (inactive). The same measure, in the same setting: with `CC(=O)c1cc(-c2ccccc2)n(CC(=O)NCc2cccs2)c1C` the figure was 2.3% (inactive); with `CC=Cc1cc2c(c(=O)o1)C(=O)C(O)C(C)O2` (centres undefined), 37.6% (inactive). On the same count and under the same terms, with `CC1CCCC=CC2CC(OC(=O)CN(C)C)CC2C(O)C=CC(=O)O1` (centres undefined) the figure was 53.7% (inactive); with `O=C(c1nnsc1S(=O)(=O)c1ccc(Cl)cc1)N1CCOCC1`, 40.8% (inactive); with `O=C1CCCCC1Sc1nnc(-c2ccc3c(c2)OCO3)o1` (centres undefined), 25.1% (inactive). Consider `CC1=CC(=O)c2c(O)cccc2C1=O`, for which the activity change, negative = cytotoxicity in test [1] (at 10 µM (top of the series)) was 112% (inactive). For `O=c1cc(-c2ccccc2)oc2cc(O)cc(O)c12`, the activity change, negative = cytotoxicity in test [1] (at 10 µM (top of the series)) is 52.1% (inactive). The same measure, in the same setting: with `N#C[C@H]1[C@H](c2ccc(C#Cc3ccccc3F)cc2)[C@H](CO)N1C(=O)C1CC1` the figure was 91.9% (inactive).

As for `COc1cccc(S(=O)(=O)N(C)C[C@H]2OCc3ccccc3-c3c(n(C)c4ccccc34)C(=O)N([C@@H](C)CO)C[C@@H]2C)c1`, the activity change, negative = cytotoxicity in test [1] (at 10 µM (top of the series)) is 28.3% (inactive). The same measure, in the same setting: then `CC(=NNC(=S)N1CC2CCC(CC2)C1)c1nccs1`, with 126% (inactive); and `O=S(=O)(CCSc1ccccn1)c1nc2ccccc2s1`, with 55.1% (inactive). For `CC1CC(C)(C)Nc2ccc(OC(=O)c3ccco3)cc21` (centres undefined), in test [1] (at 10 µM (top of the series)), the activity change, negative = cytotoxicity was 203% (inactive). On to `N#C[C@H]1[C@@H](c2ccccc2-c2ccccc2)[C@@H](CO)N1C(=O)NC1CCCC1`, for which, in test [1] (at 10 µM (top of the series)), the activity change, negative = cytotoxicity is -17.1% (inactive). On to `CCc1cnc(N2[C@H](C#N)[C@@H](c3ccccc3C3=CCCC3)[C@@H]2CO)s1`, for which the activity change, negative = cytotoxicity in test [1] (at 10 µM (top of the series)) was -4.08% (inactive). Still for that read-out and setting: then `COc1cccc(S(=O)(=O)N(C)C[C@@H]2OCc3ccccc3-c3c(n(C)c4ccccc34)C(=O)N([C@@H](C)CO)C[C@@H]2C)c1`, with 3.23% (inactive); and `Cc1ccc(S(=O)(=O)N[C@@H](Cc2ccccc2)C(=O)CCl)cc1`, with 82.4% (inactive). For the compound `CC12CC[C@H]3[C@@H](CCC4(O)C[C@H](O)CCC34/C=N/NC(=O)Cc3ccccc3)C1(O)CCC2C1=CC(=O)OC1` (some centres undefined), in test [1] (at 10 µM (top of the series)), the activity change, negative = cytotoxicity was 25% (inactive). Regarding `C[C@]12CC[C@H](O)C[C@H]1CC[C@@H]1[C@@H]2CC[C@]2(C)[C@@H](c3ccc(=O)oc3)CC[C@]12O`, the activity change, negative = cytotoxicity in test [1] (at 3.5 µM (top of the series)) was 25.8% (inactive). Take `CCCNC(=O)N1[C@H](C#N)[C@H](c2ccc(C#Cc3cccc(F)c3)cc2)[C@H]1CO`: the activity change, negative = cytotoxicity in test [1] (at 10 µM (top of the series)) was 16.9% (inactive). On the same count and under the same terms, then `C[C@H]1CN([C@@H](C)CO)C(=O)c2ccccc2-c2ccccc2CO[C@H]1CN(C)C(=O)[C@@H](Cc1ccccc1)N(C)C`, with 83.4% (inactive).

The term AC50 denotes the concentration at which the activity in the assay is half-maximal. For `OC1CC2CCC(C1)N2CCCN1c2ccccc2Sc2ccc(Cl)cc21` (centres undefined), the half-maximal activity concentration (AC50) in test [2] is 10.6 µM. On the same count and under the same terms, with `CCc1cc2c(=O)c(-c3ccc4c(c3)OCCO4)coc2c(CN2CCCCC2C)c1O` (centres undefined) the figure was 8.84 µM; with `CCN(CC)c1ccc(C(NC(=O)C(C)C)c2ccc3cccnc3c2O)cc1` (centres undefined), 9.15 µM; with `CC(C)(C)[C@H](N)C(=O)N[C@H]1CCC2C3CC=C4C[C@@H](O)CC[C@]4(C)C3CC[C@@]21C` (some centres undefined), 5.7 µM. Regarding `Cc1cc(OCC(=O)OCC(=O)NCc2ccco2)ccc1Cl`, the AC50 in test [2] is 2.21 µM. Same read-out and setting: with `COC(=O)C12OCC34C(CC5C(C)=C(O)C(=O)CC5(C)C3C(O)C1O)OC(=O)C(OC(=O)C=C(C)C)C24` (centres undefined) the figure was 3.11 µM; with `COc1ccc(CNCCC(c2ccc(F)cc2)c2ccc(OC(C)C)cc2)cc1OC` (centres undefined), 5.85 µM; with `COc1c(-c2coc3cc4c(cc3c2=O)CC(O)C(C)(C)O4)ccc2c1C=CC(C)(C)O2` (centres undefined), > 20 µM (inactive). For `COc1ccc(S(=O)(=O)Nc2ccc3c(c2)C(=O)N([C@H](C)CO)C[C@@H](C)[C@H](CN(C)Cc2ccc(C(F)(F)F)cc2)OCCCC[C@@H](C)O3)cc1`, in test [2], the concentration at half-maximal activity (AC50) is 8.94 µM.

As to `OC(CCN1CCCCC1)c1ccc(-c2ccccc2)cc1` (centres undefined), the AC50 in test [2] is > 20 µM (inactive).

On to `CC1=CC2OC3CC4OC(=O)C=CC=CC(=O)OCCC(C)C(O)C(=O)OCC2(CC1O)C4(C)C31CO1` (centres undefined), for which the AC50 in test [2] was 7.23 µM.

For `C[C@H]1CN([C@@H](C)CO)C(=O)c2ccccc2-c2ccccc2CO[C@H]1CN(C)Cc1ccc(Oc2ccccc2)cc1`, the AC50 in test [2] was > 20 µM (inactive). Still for that read-out and setting: then `CC1=NNC(=O)C1Br` (centres undefined), with 9.62 µM. On the same count and under the same terms, then `Cc1ccc(-c2cc(C(=O)N3CC(C)OC(C)C3)c3ccccc3n2)o1` (centres undefined), with > 20 µM (inactive); and `CC(=O)OC1CC2(O)C3CCC4CC(O)CCC4(C)C3CCC2(C)C1C1=CC(=O)OC1` (centres undefined), with 0.559 µM; and `O=C(COC(=O)c1ccccc1C(=O)c1ccc(Cl)c([N+](=O)[O-])c1)NC1CC1`, with 2.45 µM. The same measure, in the same setting: then `C[C@@H]1CN([C@@H](C)CO)C(=O)c2c(c3ccccc3n2C)-c2ccccc2CO[C@H]1CN(C)S(=O)(=O)c1ccc([N+](=O)[O-])cc1`, with > 20 µM (inactive). Consider `O=C1Cc2c([nH]c3ccc(Br)cc23)-c2ccccc2N1`, for which the half-maximal activity concentration (AC50) in test [2] is 10.2 µM. Consider `NC(c1csc(NC(=O)Nc2cccc(Cl)c2)n1)c1ccccc1Cl` (centres undefined), for which, in test [2], the AC50 is > 20 µM (inactive). The same measure, in the same setting: with `COc1c(O)cc2oc3cc(O)c(CC=C(C)C)c(O)c3c(=O)c2c1CC=C(C)C` the figure was 6.98 µM; with `COc1ccc2c3c(n(C)c2c1)[C@H](CO)N(C(C)=O)CC31CN(Cc2ccc(Cl)cc2)C1`, > 20 µM (inactive). On the same count and under the same terms, with `C=C1CC(Cn2cc(Br)c(=O)[nH]c2=O)(c2ccc(-c3ccccc3)cc2)OC1=O` (centres undefined) the figure was 6.59 µM. Turning to `CN(C)c1ccc(C=c2c3cc(O)ccc3n3c2cc(-c2ccccc2)[n+]3C)cc1`, in test [2], the AC50 is 10.8 µM. Same read-out and setting: with `COc1ccc(CN(CCC(c2ccccc2)c2ccc(OC(C)C)cc2)C(=O)CCl)cc1OC` (centres undefined) the figure was 2.54 µM; with `COc1ccc2c3c(n(C)c2c1)[C@@H](CO)N(C(=O)Nc1ccc(F)cc1)CC31CN(Cc2ccccc2F)C1`, > 20 µM (inactive). In the case of `COC(=O)C[C@](O)(CCCC(C)(C)O)C(=O)O[C@@H]1C(OC)=C[C@]23CCCN2CCc2cc4c(cc2[C@H]13)OCO4`, in test [2], the AC50 is > 20 µM (inactive). Same read-out and setting: then `CN(C)c1ccc(C(=C2C=CC(=[N+](C)C)C=C2)c2ccc(N(C)C)cc2)cc1`, with 0.492 µM. As for `C[C@@H]1CN([C@H](C)CO)C(=O)c2cc(NC(=O)Nc3cccc4ccccc34)ccc2O[C@@H](C)CCCCO[C@H]1CN(C)Cc1ccc(C(F)(F)F)cc1`, the AC50 in test [2] was > 20 µM (inactive).

As to `CCCNC(=O)N1[C@H](C#N)[C@@H](c2ccc(-c3cccc(OC)c3)cc2)[C@H]1CO`, the AC50 in test [2] is > 20 µM (inactive). The same measure, in the same setting: then `C[C@H](CO)N1C[C@H](C)[C@@H](CN(C)Cc2ccc(Oc3ccccc3)cc2)OCc2ccccc2-c2ccccc2C1=O`, with > 20 µM (inactive); and `COc1cccc(NC(=O)N2CC(=O)N3[C@H](CO)[C@@H](c4ccc(C#CCC5CCCC5)cc4)[C@H]3C2)c1`, with 4.13 µM; and `C[C@@H]1CCCCO[C@@H](CN(C)S(=O)(=O)c2ccc(Cl)cc2)[C@H](C)CN([C@H](C)CO)C(=O)c2cc(NC(=O)Nc3ccc(C(F)(F)F)cc3)ccc2O1`, with 6.61 µM.

For `OC(c1cc(-c2cccc(Cl)c2)nc2ccccc12)C1CCCCN1` (centres undefined), the concentration at half-maximal activity (AC50) in test [2] was 2.86 µM. Still for that read-out and setting: with `COCCn1c(C)cc(C(=O)COC(=O)c2ccc(Cl)c(S(N)(=O)=O)c2)c1C` the figure was 3.01 µM; with `COc1ccc(CN2CC3(CN(C(=O)Cc4ccccc4)C3)c3c([nH]c4cc(OC)ccc34)[C@@H]2CO)cc1`, 9.43 µM. Same read-out and setting: with `CCN(CC)C(=O)c1ccc(NC(=O)Nc2ccccc2F)cc1` the figure was 3.45 µM; with `COCC(=O)N1[C@H](C#N)[C@H](c2ccc(C#Cc3ccccc3F)cc2)[C@H]1CO`, 11.5 µM. The same measure, in the same setting: then `CCCC(C)Sc1nc2c([nH]1)c(=S)n(C)c(=O)n2C` (centres undefined), with 8.95 µM; and `Cc1cc(C)cc(N2C(=O)CC(Sc3nnnn3-c3ccccc3)C2=O)c1` (centres undefined), with 4.02 µM; and `N=C(N)c1ccc(OCCCCCOc2ccc(C(=N)N)cc2)cc1`, with > 20 µM (inactive). `N#C[C@@H]1[C@H](c2ccc(C#CC3CCCCC3)cc2)[C@@H](CO)N1S(=O)(=O)c1ccccc1`: the half-maximal activity concentration (AC50) in test [2] is 7.22 µM. Regarding `COc1ccc(C#Cc2ccc([C@H]3[C@@H](CO)N4CCCCN(S(=O)(=O)c5cn(C)cn5)C[C@H]34)cc2)cc1`, in test [2], the AC50 is 10.8 µM. The same measure, in the same setting: then `C[C@@H]1CCCCO[C@H](CN(C)Cc2ccc(C(F)(F)F)cc2)[C@@H](C)CN([C@@H](C)CO)C(=O)c2cc(NC(=O)Nc3cccc4ccccc34)ccc2O1`, with 10.7 µM. Consider `C=CC[n+]1c(/C=C2\C=Cc3cc(C)ccc3N2CC)ccc2ccccc21`, for which, in test [2], the half-maximal activity concentration (AC50) is 7.46 µM.

As for `C[C@@H]1CN([C@@H](C)CO)C(=O)c2ccccc2-c2ccccc2CO[C@@H]1CN(C)Cc1ccc(Oc2ccccc2)cc1`, the AC50 in test [2] was 8.71 µM. The same measure, in the same setting: then `Cc1ccc(OCCn2cnc3c(N)ncnc32)cc1`, with > 20 µM (inactive). Take `COc1ccc2c3c(n(C)c2c1)[C@H](CO)N(C(=O)Nc1ccc(F)cc1)CC31CCN(C(=O)c2ccc3c(c2)OCO3)CC1`: the AC50 in test [2] is > 20 µM (inactive).

For `COc1ccc(S(=O)(=O)Nc2ccc3c(c2)C(=O)N([C@H](C)CO)C[C@@H](C)[C@@H](CN(C)Cc2ccc(C(F)(F)F)cc2)OCCCC[C@H](C)O3)cc1`, the AC50 in test [2] is > 20 µM (inactive). Same read-out and setting: then `CC(C)=CCc1c2c(c3occ(-c4ccc(O)c(O)c4)c(=O)c3c1O)C=CC(C)(C)O2`, with 5.55 µM; and `CNC(=S)NN=C(C)CCCC(C)=NNC(=S)NC`, with 10.3 µM.
